The source of these data is patent publication US8420696B2, “Use of low-dose ladostigil for neuroprotection” (priority 2005, dated 2013).

One series has as its system cultured neuronal cells. The conditions noted are these: low concentrations; cited from earlier work.
For series [1], the target named is T1, butyrylcholinesterase (BuChE) (Rattus norvegicus, UniProt Q9JKC1).
T1 construct: from tissue; host or cells: cortex and hippocampus homogenates of dosed Sprague-Dawley rats
Briefly: Example 2: BuChE activity in cortex and hippocampus after ladostigil treatment. Format: in vivo, rats. As to conditions: chronic 1 mg/kg. Here is the method: The effect of chronic ladostigil treatment on ChE activity in the cortex and hippocampus of rats was determined one week after icv STZ in 12 rats (3 treated with water and 9 with ladostigil). The effect of acute treatment with ladostigil 1 or 17 mg/kg was determined 2 hrs after drug administration. […] The brain was rapidly removed, washed with saline on ice and the cortex, hippocampus and striatum dissected out, quickly weighed and stored at −70° C. until assay. Total ChE activity in the cortex and hippocampus was measured as described in Wang et al., Gender differences in the effect of rivastigmine on brain cholinesterase activity and cognitive function in rats, Neuropharmacology (2000) 39:497-506, using the spectrophotometric method of Ellman et al., A new and rapid colorimetric determination of acetylcholinesterase activity, Biochem. Pharmacol. (1961) 7:88-95 with acetylthiocholine (Sigma Ltd) as a substrate using homogenate of 100 mg tissue in 1 ml phosphate buffer. To determine only butyrylcholinesterase (BuChE) activity the amounts of tissue/ml of buffer were increased 3-fold and butyrylthiocholine (Sigma Ltd) was used as a substrate. MAO A and B activity was measured in homogenates of striatum as described in Weinstock et al., Limited potentiation of blood pressure response to oral tyramine by brain-selective monoamine oxidase A-B inhibitor, TV-3326 in conscious rabbits, Neuropharmacology (2002) 43:999-1005.

Series [2] has as its system NT immunoreactivity in astrocytes. Briefly: Example 2: astrocyte activation and NT immunoreactivity in hippocampus and regions bordering lateral ventricles after icv STZ. Format: in vivo, Sprague-Dawley rats. As to conditions: 1 mg/kg/day orally, one week after icv STZ. Here is the method: Male Sprague-Dawley rats (63) weighing 320-340 g, aged 4 months, were anesthetized by an intraperitoneal injection of Equithesin 0.3 ml/kg. STZ (0.5 mg) dissolved in 2 μl artificial cerebrospinal fluid (CSF) was injected into each lateral ventricle of 45 rats. The stereotaxic co-ordinates for icv injection were: 0.9 mm posterior, 1.8 mm lateral and 3.8 mm ventral from the bregma level. Control rats (18) received a bilateral injection of 2 μl artificial CSF. STZ-injected rats (25) were given ladostigil (1 mg/kg of the hemitartrate salt/day) orally in a volume of (1 ml/kg) from one week before, until 1 or 8 weeks after icv STZ. The remaining 20 rats received 1 ml/kg water. The rats were housed two per cage with free access to food and water until the behavioral, enzymatic and cytochemical measurements were completed. […]
Nitrotyrosine, (NT) a marker of nitrative/oxidative stress, was stained with rabbit anti-nitrotyrosine from Upstate (Lake Placid, N.Y., USA), diluted 1:100 followed by the secondary donkey anti-rabbit conjugated with horseradish peroxidase from Chemicon (Temecula, Calif., USA), was diluted 1:200. […] Images were obtained by bright field microscopy and quantitative assessments of appropriate markers were made using AnalySIS software. […]
For each quantitative analysis of NT-immunoreactive astrocytes, 3 sections were sampled from each rat. […]

Molecules are shown by their SMILES.

T1 sequence (Q9JKC1 24-597): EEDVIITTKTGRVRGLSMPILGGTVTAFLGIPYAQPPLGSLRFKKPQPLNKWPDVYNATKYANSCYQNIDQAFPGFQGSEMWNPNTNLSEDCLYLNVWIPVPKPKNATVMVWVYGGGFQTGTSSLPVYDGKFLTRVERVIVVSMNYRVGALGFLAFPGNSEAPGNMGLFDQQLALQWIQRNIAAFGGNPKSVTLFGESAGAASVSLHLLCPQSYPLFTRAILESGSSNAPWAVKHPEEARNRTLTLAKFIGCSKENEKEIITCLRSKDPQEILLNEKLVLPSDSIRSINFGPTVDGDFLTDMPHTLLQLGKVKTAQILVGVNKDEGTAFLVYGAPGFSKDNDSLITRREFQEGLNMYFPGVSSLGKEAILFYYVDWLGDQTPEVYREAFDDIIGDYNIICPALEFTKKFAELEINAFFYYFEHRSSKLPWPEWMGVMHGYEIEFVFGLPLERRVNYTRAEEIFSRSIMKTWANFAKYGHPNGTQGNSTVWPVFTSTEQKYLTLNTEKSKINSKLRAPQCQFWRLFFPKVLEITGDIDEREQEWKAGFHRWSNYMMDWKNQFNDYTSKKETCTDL

For the molecule `C#CCN[C@@H]1CCc2ccc(OC(=O)N(C)CC)cc21` [ladostigil, R(+)-6-(N-methyl,N-ethyl-carbamoyloxy)-N′-propargyl-1-aminoindan], the “Cytotoxicity induced by ROS and NO in cultured neuronal cells” value in the series with cultured neuronal cells is given as “prevent cytotoxicity”. Moreover, the “BuChE (%) inhibition” value in series [1] (Cortex, 60 min) was 16.2 ± 2.5 %; in series [1] (Cortex, 120 min), 15.7 ± 3.2 %; in series [1] (Hippocampus, 60 min), 7.3 ± 2.5%; in series [1] (Hippocampus, 120 min) it was 5.4 ± 2.8%. Also, in series [1], the “Inhibition of BuChE in the hippocampus” value is listed as “no significant inhibition”. In addition, the “Inhibition of BuChE in the cortex” value in series [1] (seven days after icv STZ, 1 or 2 hrs after the last dose) was 16%. Also, in series [2], the “Astrocyte activation and NT immunoreactivity in CA1, corpus callosum, medial and lateral septum” value is “reduced both astrocyte activation and NT immunoreactivity in these brain regions to the level of that seen in CSF-injected controls”.
